# Measured values from patent US5744450A, “GnRH analogs” (The Salk Institute for Biological Studies, priority 1995, dated 1998).
# Test system: LH release
smiles,measurement,value
"CCNC(=O)[C@@H]1CCCN1C(=O)[C@H](CCCNC(=N)N)NC(=O)[C@H](CC(C)C)NC(=O)[C@@H](Cc1ccc(Nc2n[nH]c(N)n2)cc1)NC(=O)[C@H](Cc1ccc(O)cc1)NC(=O)[C@H](CO)NC(=O)[C@H](Cc1c[nH]c2ccccc12)NC(=O)[C@H](Cc1c[nH]cn1)NC(=O)[C@@H]1CCC(=O)N1 [Peptide 130A, pGlu-His-Trp-Ser-Tyr-D-Aph(3-amino-1,2,4-triazole)-Leu-Arg-Pro-NHCH2 CH3]",potency relative to native GnRH,about 79 times that of native GnRH
